Source: patent US20240376111A1, “COMPOSITIONS AND METHODS OF USING THE SAME FOR TREATMENT OF NEURODEGENERATIVE AND MITOCHONDRIAL DISEASE” (Mitokinin, Inc., priority 2021, published 2024)
Read-outs that look alike come from different tables or passages of the source.

Experiments:
[1] = test system: HeLa cells expressing mt-Keima and YFP-Parkin (HeLa MKYP); test: Human mt-Keima mitophagy assay; assay type: cell-based; conditions: HeLa MKYP cells, 16 hrs with compound, then 1 uM FCCP/oligomycin for 6 hours, FACS, read-out: EC50 in HeLa mt-Keima Mitophagy Assay
Protocol: Briefly, HeLa cells expressing mt-Keima and YFP-Parkin (HeLa MKYP) were plated at 10,000 cells/well in 96 well plates along with compounds at various concentrations. Following 16 hrs of incubation, cells were treated with 1 uM FCCP/oligomycin for 6 hours, then analyzed via FACS for the presence of mitochondria in lysosomes (as determined by an emissions spectrum shift from the pH-sensitive mt-Keima tag).

[2] = test system: pS129 α-synuclein in mouse primary neurons treated with α-synuclein PFFs; test: In vitro primary neuron α-synuclein pre-formed fibril (PFF) model; assay type: cell-based; conditions: increasing doses, Western blot of insoluble fraction of lysates
Protocol: Primary hippocampal neurons were derived following standard protocols, and treated with sonicated PFFs according to the methods in Volpicelli-Daley et al (Methods Mol Biol 2019). Following addition of PFFs or PBS on DIV7, Mitokinin compound or vehicle control was added on DIV9 and DIV12. At DIV14, cultures were harvested for biochemical analysis using either whole cell lysis buffer or fractionation buffer containing NP-40.
For whole cell lysates, cultures were collected in WC lysis buffer [100 mM Bicine pH 8.0, 0.27M Sucrose (Sigma S-1888, FW: 342.3), 1 mM EDTA, 1 mM EGTA, 5 mM Na4P2O7 (ESB422, MW 446.06 g/mol), 100 mM Tris pH 7.5, 1% Triton X-100, 1× Halt™ Protease and Phosphatase Inhibitor Cocktail, with Benzonase (1:1000)]. Samples were incubated on ice for 30 min, sonicated, and then cleared by centrifugation at 18,000 g for 20 min at 4° C. Supernatant protein concentration was determined by BCA assay, and samples were analyzed by western blot using commercially available antibodies. Neuronal health markers included NfL, total caspase-3, cleaved caspase-3, pS65 Ub, LC3, TUJ1, and actin.
For fractionation, cells were collected in NP-40 lysis buffer (containing 10 mM Tris-HCl, pH 7.4, 150 mM NaCl, 5 mM EDTA, 0.5% Nonidet P-40, 1× Halt™ Protease and Phosphatase Inhibitor Cocktail, with Benzonase (1:1000). Following differential centrifugation at 22,000 g for 20 min at 4° C., the NP-40 insoluble pellet was resuspended in SDS-Brain lysis buffer (containing 10 mM Tris-HCl, pH 7.4, 150 mM NaCl, 5 mM EDTA, 0.5% Nonidet P-40, 1% SDS, 0.5% sodium deoxycholate, 1× Halt™ Protease and Phosphatase Inhibitor Cocktail, with Benzonase (1:1000) and sonicated. Protein concentrations were determined using the BCA assay and samples were analyzed for pS129 α-synuclein and total α-synuclein levels by western blot.

SKOV3 cells [3] = test: In vitro mitosafety (glucose/galactose) assay; conditions: highest mito-safe dose = highest concentration at which gal/glc>0.80 (IC20) in SKOV3 cells, divided by mt-Keima EC50
Protocol: (§1) Briefly, SKOV3 cells (ATCC HTB-77) were plated in DMEM (Corning 10-013-CV) medium containing 25 mM glucose or DMEM with no glucose (Gibco 11966-025) supplemented with 10 mM galactose at 9,000 cells/well in 96 well plates (Corning costar 3610). 24 hrs later, compounds, in DMSO, were added at various concentrations to a final 0.1% DMSO for all wells. […] After a 15 minute incubation cellular ATP levels were read out using a Promega GloMax® DiscoverMicroplate Reader.
(§2) The ratio of relative CellTiter-Glo values from cells grown in galactose to cells grown in glucose was determined (gal/glc ratio). The gal/glc ratio vs concentration is then graphed, and non-linear regression is used to find the highest concentration of MTK compound at which gal/glc>0.80 (the “highest mito-safe dose”, or IC20).

SKOV3 cells [4] = test system: SKOV3 cells
Protocol: as §1, §2

Row | Molecule | EC50 ([1]; Homo sapiens) [µM] | pS129 α-synuclein [2] | Mito-Safety Index (highest mito-safe dose/mt-Keima EC50) (SKOV3 cells [3]) | EC50 [1] [µM] | Mito-Safety Index (highest mito-safe dose/mt-Keima EC50) (SKOV3 cells [4])
1 | COCCO[C@H]1COc2ccccc2[C@@H]1Nc1ncnc2[nH]c(C3CC3)cc12 [EP-0041944, 6-cyclopropyl-N-[(3R,4S)-3-(2-methoxyethoxy)chroman-4-yl]-7H-pyrrolo[2,3-d]pyrimidin-4-amine] | 0.13 | significantly reduces | 45.94 |  | 
2 | CC(C)(F)CO[C@H]1COc2ccccc2[C@@H]1Nc1ncnc2[nH]c(C3CC3)cc12 [EP-0043180, 6-cyclopropyl-N-[(3R,4S)-3-(2-fluoro-2-methyl-propoxy)chroman-4-yl]-7H-pyrrolo[2,3-d]pyrimidin-4-amine] | 0.149 | significantly reduces | 168.02 |  | 
3 | N-[(3R,4,S)-3-(2-methoxyethoxy)chroman-4-yl]-6-(trifluoromethyl)-7H-pyrrolo[2,3-d]pyrimidin-4-amine [EP-0042319] |  | significantly reduces |  | 0.246 | 74.75
